Experiment: Evaluation of conversion rate to active form in buffer solution (Experimental Example 1)
Assay type: physicochemical
Conditions: for Production rate of Alvocidib / Residual rate: 37° C., 25 umol/L in buffer solution; for Stability in buffer solution at pH 5: pH 5, 37° C., up to 2 or 3 hours; for Conversion to Alvocidib at pH 7.4: pH 7.4, 37° C., up to 3 hours
Method in brief: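 Stability across pH: 25 umol/L, 37° C, 50 mM citrate/phosphate, pH 5.0–7.4. Sampling at 0, 0.5, 1, 2, 3 h; HPLC determined loss of compound and Alvocidib generated.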

SMILES: COCCN(CC1CCCCN1)C(=O)Oc1cc(O)c2c(=O)cc(-c3ccccc3Cl)oc2c1[C@H]1CCN(C)C[C@H]1O (stereo partly drawn) [Example 12, 2-(2-chlorophenyl)-5-hydroxy-8-[(3S,4R)-3-hydroxy-1-methylpiperidin-4-yl]-4-oxo-4H-1-benzopyran-7-yl (2-methoxyethyl) [(piperidin-2-yl)methyl]carbamate]
- Production rate of Alvocidib (pH5.0, 0 hr): 0.5%
- Residual rate (pH5.0, 0 hr): 80.7%
- Stability in buffer solution at pH 5: stable
- Production rate of Alvocidib (pH5.0, 0.5 hr): 1.1%
- Residual rate (pH5.0, 0.5 hr): 80.3%
- Production rate of Alvocidib (pH5.0, 1 hr): 1.5%
- Residual rate (pH5.0, 1 hr): 79.6%
- Production rate of Alvocidib (pH5.0, 2 hr): 2.3%
- Residual rate (pH5.0, 2 hr): 79.6%
- Production rate of Alvocidib (pH5.0, 3 hr): 3.9%
- Residual rate (pH5.0, 3 hr): 77.3%
- Production rate of Alvocidib (pH5.5, 0 hr): 0.5%
- Residual rate (pH5.5, 0 hr): 80.6%
- Production rate of Alvocidib (pH5.5, 0.5 hr): 1.9%
- Residual rate (pH5.5, 0.5 hr): 79.9%
- Production rate of Alvocidib (pH5.5, 1 hr): 3.8%
- Residual rate (pH5.5, 1 hr): 77.5%
- Production rate of Alvocidib (pH5.5, 2 hr): 6.9%
- Residual rate (pH5.5, 2 hr): 73.8%
- Production rate of Alvocidib (pH5.5, 3 hr): 9.8%
- Residual rate (pH5.5, 3 hr): 71.2%
- Production rate of Alvocidib (pH6.0, 0 hr): 0.6%
- Residual rate (pH6.0, 0 hr): 80.8%
- Production rate of Alvocidib (pH6.0, 0.5 hr): 6.2%
- Residual rate (pH6.0, 0.5 hr): 75.4%
- Production rate of Alvocidib (pH6.0, 1 hr): 11.0%
- Residual rate (pH6.0, 1 hr): 70.3%
- Production rate of Alvocidib (pH6.0, 2 hr): 22.5%
- Residual rate (pH6.0, 2 hr): 56.2%
- Production rate of Alvocidib (pH6.0, 3 hr): 26.9%
- Residual rate (pH6.0, 3 hr): 54.0%
- Production rate of Alvocidib (pH6.5, 0 hr): 1.0%
- Residual rate (pH6.5, 0 hr): 80.4%
- Production rate of Alvocidib (pH6.5, 0.5 hr): 16.6%
- Residual rate (pH6.5, 0.5 hr): 63.8%
- Production rate of Alvocidib (pH6.5, 1 hr): 31.8%
- Residual rate (pH6.5, 1 hr): 39.4%
- Production rate of Alvocidib (pH6.5, 2 hr): 40.5%
- Residual rate (pH6.5, 2 hr): 26.2%
- Production rate of Alvocidib (pH6.5, 3 hr): 52.2%
- Residual rate (pH6.5, 3 hr): 13.4%
- Production rate of Alvocidib (pH7.0, 0 hr): 1.7%
- Residual rate (pH7.0, 0 hr): 80.2%
- Production rate of Alvocidib (pH7.0, 0.5 hr): 33.8%
- Residual rate (pH7.0, 0.5 hr): 35.8%
- Production rate of Alvocidib (pH7.0, 1 hr): 51.2%
- Residual rate (pH7.0, 1 hr): 15.4%
- Production rate of Alvocidib (pH7.0, 2 hr): 60.2%
- Residual rate (pH7.0, 2 hr): 0.0%
- Production rate of Alvocidib (pH7.0, 3 hr): 62.7%
- Residual rate (pH7.0, 3 hr): 0.0%
- Production rate of Alvocidib (pH7.4, 0 hr): 3.9%
- Residual rate (pH7.4, 0 hr): 77.3%
- Conversion to Alvocidib at pH 7.4: rapidly converted to Alvocidib
- Production rate of Alvocidib (pH7.4, 0.5 hr): 51.0%
- Residual rate (pH7.4, 0.5 hr): 10.8%
- Production rate of Alvocidib (pH7.4, 1 hr): 65.9%
- Residual rate (pH7.4, 1 hr): 0.0%
- Production rate of Alvocidib (pH7.4, 2 hr): 67.3%
- Residual rate (pH7.4, 2 hr): 0.0%
- Production rate of Alvocidib (pH7.4, 3 hr): 63.6%
- Residual rate (pH7.4, 3 hr): 0.0%

SMILES: CN1CC[C@H](c2c(OC(=O)N(CCC(F)(F)F)CC3CCCCN3)cc(O)c3c(=O)cc(-c4ccccc4Cl)oc23)[C@H](O)C1 (stereo partly drawn) [Example 13, 2-(2-chlorophenyl)-5-hydroxy-8-[(3S,4R)-3-hydroxy-1-methylpiperidin-4-yl]-4-oxo-4H-1-benzopyran-7-yl [(piperidin-2-yl)methyl](3,3,3-trifluoropropyl)carbamate]
- Production rate of Alvocidib (pH5.0, 0 hr): 2.1%
- Residual rate (pH5.0, 0 hr): 82.1%
- Stability in buffer solution at pH 5: stable
- Production rate of Alvocidib (pH5.0, 0.5 hr): 3.9%
- Residual rate (pH5.0, 0.5 hr): 81.7%
- Production rate of Alvocidib (pH5.0, 1 hr): 4.9%
- Residual rate (pH5.0, 1 hr): 80.3%
- Production rate of Alvocidib (pH5.0, 2 hr): 6.3%
- Residual rate (pH5.0, 2 hr): 78.0%
- Production rate of Alvocidib (pH5.0, 3 hr): 8.0%
- Residual rate (pH5.0, 3 hr): 76.1%
- Production rate of Alvocidib (pH5.5, 0 hr): 2.5%
- Residual rate (pH5.5, 0 hr): 82.7%
- Production rate of Alvocidib (pH5.5, 0.5 hr): 5.5%
- Residual rate (pH5.5, 0.5 hr): 79.2%
- Production rate of Alvocidib (pH5.5, 1 hr): 8.6%
- Residual rate (pH5.5, 1 hr): 74.6%
- Production rate of Alvocidib (pH5.5, 2 hr): 13.9%
- Residual rate (pH5.5, 2 hr): 67.1%
- Production rate of Alvocidib (pH5.5, 3 hr): 17.7%
- Residual rate (pH5.5, 3 hr): 61.8%
- Production rate of Alvocidib (pH6.0, 0 hr): 3.3%
- Residual rate (pH6.0, 0 hr): 81.3%
- Production rate of Alvocidib (pH6.0, 0.5 hr): 11.6%
- Residual rate (pH6.0, 0.5 hr): 69.8%
- Production rate of Alvocidib (pH6.0, 1 hr): 21.6%
- Residual rate (pH6.0, 1 hr): 56.6%
- Production rate of Alvocidib (pH6.0, 2 hr): 33.3%
- Residual rate (pH6.0, 2 hr): 40.2%
- Production rate of Alvocidib (pH6.0, 3 hr): 42.5%
- Residual rate (pH6.0, 3 hr): 28.3%
- Production rate of Alvocidib (pH6.5, 0 hr): 3.7%
- Residual rate (pH6.5, 0 hr): 81.4%
- Production rate of Alvocidib (pH6.5, 0.5 hr): 27.5%
- Residual rate (pH6.5, 0.5 hr): 47.7%
- Production rate of Alvocidib (pH6.5, 1 hr): 47.7%
- Residual rate (pH6.5, 1 hr): 22.2%
- Production rate of Alvocidib (pH6.5, 2 hr): 56.7%
- Residual rate (pH6.5, 2 hr): 9.9%
- Production rate of Alvocidib (pH6.5, 3 hr): 65.5%
- Residual rate (pH6.5, 3 hr): 2.8%
- Production rate of Alvocidib (pH7.0, 0 hr): 5.4%
- Residual rate (pH7.0, 0 hr): 78.3%
- Production rate of Alvocidib (pH7.0, 0.5 hr): 49.3%
- Residual rate (pH7.0, 0.5 hr): 18.7%
- Production rate of Alvocidib (pH7.0, 1 hr): 65.9%
- Residual rate (pH7.0, 1 hr): 2.7%
- Production rate of Alvocidib (pH7.0, 2 hr): 65.1%
- Residual rate (pH7.0, 2 hr): 0.4%
- Production rate of Alvocidib (pH7.0, 3 hr): 69.9%
- Residual rate (pH7.0, 3 hr): 0.0%
- Production rate of Alvocidib (pH7.4, 0 hr): 9.2%
- Residual rate (pH7.4, 0 hr): 68.5%
- Conversion to Alvocidib at pH 7.4: rapidly converted to Alvocidib
- Production rate of Alvocidib (pH7.4, 0.5 hr): 65.8%
- Residual rate (pH7.4, 0.5 hr): 2.2%
- Production rate of Alvocidib (pH7.4, 1 hr): 65.5%
- Residual rate (pH7.4, 1 hr): 0.2%
- Production rate of Alvocidib (pH7.4, 2 hr): 68.6%
- Residual rate (pH7.4, 2 hr): 0.0%
- Production rate of Alvocidib (pH7.4, 3 hr): 66.1%
- Residual rate (pH7.4, 3 hr): 0.0%
